Source: patent EP2296651B1, “5-HYDROXYMETHYL-OXAZOLIDIN-2-ONE DERIVATIVES FOR TREATING BACTERIAL INTESTINAL DISEASES” (Actelion Pharmaceuticals Ltd., priority 2008, dated 2009)
Values after ≈ are worked out from the molar mass of the structure shown.

Tests used:
[1] = tested on: Bacteroides fragilis A-502 T 7403; assay: Agar dilution MIC, anaerobic strains; format: cell-based; details: A502T7403, 48 h
[2] = tested on: Bacteroides fragilis A-217 B 6306; assay: Agar dilution MIC, anaerobic strains; format: cell-based; details: A217B6306, 48 h
[3] = tested on: S. aureus ATCC 43300 (MRSA); assay: Broth microdilution MIC, aerobic Gram-positive bacteria; details: Staphylococcus aureus, 48 h
E. faecium H 7966 = assay: as above; details: Enterococcus faecium, H7966, 48 h
[4] = tested on: Lactococcus lactis A-1256 DSM 20069; assay: Agar dilution MIC, anaerobic strains; format: cell-based
E. faecium A 949 = assay: Broth microdilution MIC, aerobic Gram-positive bacteria; details: Enterococcus faecium, A949, 48 h
S. aureus S1 (LZD-R) = assay: as above; details: Staphylococcus aureus, 48 h
C. difficile ATCC 43596 = assay: Broth microdilution MIC, anaerobic; format: cell-based, Clostridium difficile; details: Clostridioides difficile, ATCC43596, 48h at 37°C, read-out: MIC regarding C. difficile ATCC 43596
E. faecalis H 4060 = assay: Broth microdilution MIC, aerobic Gram-positive bacteria; details: Enterococcus faecalis, H4060, 48 h
E. faecalis H 7460 = assay: as above; details: Enterococcus faecalis, H7460, 48 h
[5] = tested on: Bacteroides fragilis A-293 B 2518; assay: Agar dilution MIC, anaerobic strains; format: cell-based; details: A293B2518, 48 h
[6] = tested on: Bacteroides fragilis A-260 T 9865; assay: Agar dilution MIC, anaerobic strains; format: cell-based; details: A260T9865, 48 h
E. faecium L1 (LZD-R) = assay: Broth microdilution MIC, aerobic Gram-positive bacteria; details: Enterococcus faecium, 48 h
S. aureus A-798 (MRSA) = assay: as above; details: Staphylococcus aureus, 48 h
[7] = tested on: Lactobacillus acidophilus A-1255 DSM 20079; assay: Agar dilution MIC, anaerobic strains; format: cell-based
[8] = tested on: Bacteroides vulgatus A-989 ATCC 8482; assay: Agar dilution MIC, anaerobic strains; format: cell-based; details: Phocaeicola vulgatus, ATCC8482, 48 h
C. difficile ATCC 9689 = assay: Broth microdilution MIC, anaerobic; format: cell-based, Clostridium difficile; details: Clostridioides difficile, ATCC9689, 48h at 37°C, read-out: MIC regarding C. difficile ATCC 9689
E. faecalis H 6279 = assay: Broth microdilution MIC, aerobic Gram-positive bacteria; details: Enterococcus faecalis, H6279, 48 h
E. faecalis H 6897 = assay: as above; details: Enterococcus faecalis, H6897, 48 h
C. difficile NC 13366 = assay: Broth microdilution MIC, anaerobic; format: cell-based, Clostridium difficile; details: Clostridioides difficile, NC13366, 48h at 37°C, quinolone-resistant hypervirulent strain, read-out: MIC regarding C. difficile NC 13366
E. faecium H 7969 = assay: Broth microdilution MIC, aerobic Gram-positive bacteria; details: Enterococcus faecium, H7969, 48 h
E. faecalis ATCC 29212 = assay: as above; details: Enterococcus faecalis, ATCC29212, 48 h
E. faecium H 9070 = assay: as above; details: Enterococcus faecium, H9070, 48 h
E. faecium ATCC 19434 = assay: as above; details: Enterococcus faecium, ATCC19434, 48 h
[9] = tested on: Fusobacterium necrophorum A-1260 DSM 20698; assay: Agar dilution MIC, anaerobic strains; format: cell-based; details: DSM20698, 48 h
E. faecium A 962 = assay: Broth microdilution MIC, aerobic Gram-positive bacteria; details: Enterococcus faecium, A962, 48 h
[10] = tested on: Bifidobacterium bifidum A-1258 DSM 20456; assay: Agar dilution MIC, anaerobic strains; format: cell-based; details: DSM20456, 48 h
[11] = tested on: Bacteroides fragilis A-294 T 9174; assay: Agar dilution MIC, anaerobic strains; format: cell-based; details: A294T9174, 48 h
[12] = tested on: Clostridium difficile A- 1179 NC 13366; assay: Agar dilution MIC, anaerobic strains; format: cell-based; details: Clostridioides difficile, A1179NC13366, 48 h
E. faecium H 7937 = assay: Broth microdilution MIC, aerobic Gram-positive bacteria; details: Enterococcus faecium, H7937, 48 h
[13] = tested on: Finegoldia magna A-1254 DSM 20470; assay: Agar dilution MIC, anaerobic strains; format: cell-based
[14] = tested on: Bacteroides ovatus A-991 ATCC 8483; assay: Agar dilution MIC, anaerobic strains; format: cell-based; details: ATCC8483, 48 h
[15] = tested on: Bacteroides fragilis A-348 T 8673; assay: Agar dilution MIC, anaerobic strains; format: cell-based; details: A348T8673, 48 h

## O=C(O)c1cn(C2CC2)c2cc(N3CCC(O)(COc4ccc(N5C[C@H](CO)OC5=O)cc4F)CC3)c(F)cc2c1=O [Example 1, 1-cyclopropyl-6-fluoro-7-{4-[2-fluoro-4-((R)-5-hydroxymethyl-2-oxo-oxazolidin-3-yl)-phenoxymethyl]-4-hydroxy-piperidin-1-yl}-4-oxo-1,4-dihydro-quinoline-3-carboxylic acid]
[1]
  MIC: 4 µg/mL (≈ 6.83 µM)
[2]
  MIC: 4 µg/mL (≈ 6.83 µM)
[3]
  MIC: 0.25 µg/mL (≈ 0.427 µM)
E. faecium H 7966
  MIC: 0.5 µg/mL (≈ 0.854 µM)
[4]; DSM20069, 48 h, Lactococcus lactis A-1256, DSM 20069
  MIC: 0.5 µg/mL (≈ 0.854 µM)
[4]; versus R1
  less activity against Lactococcus lactis A-1256 compared to the compound of Example 5 of WO 2005/058888: 8 times
E. faecium A 949
  MIC: 1 µg/mL (≈ 1.71 µM)
S. aureus S1 (LZD-R)
  MIC: 1 µg/mL (≈ 1.71 µM)
C. difficile ATCC 43596
  MIC: 0.125 µg/mL (≈ 0.213 µM)
E. faecalis H 4060
  MIC: 0.25 µg/mL (≈ 0.427 µM)
E. faecalis H 7460
  MIC: 1 µg/mL (≈ 1.71 µM)
[5]
  MIC: 4 µg/mL (≈ 6.83 µM)
[6]
  MIC: 4 µg/mL (≈ 6.83 µM)
E. faecium L1 (LZD-R)
  MIC: 2 µg/mL (≈ 3.42 µM)
S. aureus A-798 (MRSA)
  MIC: 0.25 µg/mL (≈ 0.427 µM)
[7]; DSM20079, 48 h, Lactobacillus acidophilus A-1255, DSM 20079
  MIC: 0.5 µg/mL (≈ 0.854 µM)
[7]; versus R1
  less activity against Lactobacillus acidophilus A-1255 compared to the compound of Example 5 of WO 2005/058888: 8 times
[8]
  MIC: 2 µg/mL (≈ 3.42 µM)
C. difficile ATCC 9689
  MIC: 0.125 µg/mL (≈ 0.213 µM)
E. faecalis H 6279
  MIC: 0.25 µg/mL (≈ 0.427 µM)
E. faecalis H 6897
  MIC: 1 µg/mL (≈ 1.71 µM)
C. difficile NC 13366
  MIC: 0.06 µg/mL (≈ 0.102 µM)
E. faecium H 7969
  MIC: 1 µg/mL (≈ 1.71 µM)
E. faecalis ATCC 29212
  MIC: 0.25 µg/mL (≈ 0.427 µM)
E. faecium H 9070
  MIC: 1 µg/mL (≈ 1.71 µM)
E. faecium ATCC 19434
  MIC: 0.25 µg/mL (≈ 0.427 µM)
[9]
  MIC: 1 µg/mL (≈ 1.71 µM)
E. faecium A 962
  MIC: 0.5 µg/mL (≈ 0.854 µM)
[10]
  MIC: 0.5 µg/mL (≈ 0.854 µM)
[11]
  MIC: 4 µg/mL (≈ 6.83 µM)
[12]
  MIC: ≤ 0.06 µg/mL
E. faecium H 7937
  MIC: 0.25 µg/mL (≈ 0.427 µM)
[13]; DSM20470, 48 h, Finegoldia magna A-1254, DSM 20470
  MIC: 0.25 µg/mL (≈ 0.427 µM)
[13]; versus R1
  less activity against Finegoldia magna A-1254 compared to the compound of Example 5 of WO 2005/058888: 4 times
[14]
  MIC: 16 µg/mL (≈ 27.3 µM)
[15]
  MIC: 2 µg/mL (≈ 3.42 µM)
